Experimental data published in US7582649B2, “Hydroxy alkyl substituted 1,3,8-triazaspiro[4.5]decan-4-one derivatives useful for the treatment of ORL-1 receptor mediated disorders” (Janssen Pharmaceutica, NV, priority 2002, dated 2009).
Structures can show the parent of a compound that is named as a salt. Where two headings read alike, the source gives them in different places.

Assays:
delta opioid receptor = delta opioid receptor (Homo sapiens, UniProt P41143); assay: Filtration binding assay: delta opioid receptor
kappa opioid receptor = kappa opioid receptor (Homo sapiens, UniProt P41145); assay: Filtration binding assay: kappa opioid receptor
mu opioid receptor = mu opioid receptor (Homo sapiens, UniProt P35372); assay: Filtration binding assay: mu opioid receptor
[1] = mean where tested more than once, read-out: Delta IC50
[2] = mean where tested more than once, read-out: Kappa IC50
[3] = mean where tested more than once, read-out: Mu IC50

mu opioid receptor, sequence (P35372 whole entry): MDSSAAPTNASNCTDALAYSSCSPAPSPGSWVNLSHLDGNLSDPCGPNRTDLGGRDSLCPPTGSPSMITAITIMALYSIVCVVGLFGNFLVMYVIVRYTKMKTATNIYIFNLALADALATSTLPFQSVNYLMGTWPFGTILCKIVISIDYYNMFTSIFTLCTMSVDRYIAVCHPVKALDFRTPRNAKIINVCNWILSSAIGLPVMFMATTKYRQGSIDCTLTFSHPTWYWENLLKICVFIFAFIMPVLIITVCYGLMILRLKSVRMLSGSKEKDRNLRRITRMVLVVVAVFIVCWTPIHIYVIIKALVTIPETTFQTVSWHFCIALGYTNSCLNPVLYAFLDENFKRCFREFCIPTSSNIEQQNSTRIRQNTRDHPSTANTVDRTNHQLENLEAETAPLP
kappa opioid receptor, sequence (P41145 whole entry): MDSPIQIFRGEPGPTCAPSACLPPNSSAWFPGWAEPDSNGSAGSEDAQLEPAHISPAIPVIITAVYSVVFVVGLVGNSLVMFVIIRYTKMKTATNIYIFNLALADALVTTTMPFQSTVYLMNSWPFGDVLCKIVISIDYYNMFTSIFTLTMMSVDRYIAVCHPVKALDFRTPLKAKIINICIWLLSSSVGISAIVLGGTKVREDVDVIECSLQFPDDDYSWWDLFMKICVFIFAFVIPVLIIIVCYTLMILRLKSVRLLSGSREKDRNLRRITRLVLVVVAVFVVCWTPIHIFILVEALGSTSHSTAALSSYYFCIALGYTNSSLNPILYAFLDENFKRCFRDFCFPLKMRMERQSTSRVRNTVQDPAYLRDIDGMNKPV
delta opioid receptor, sequence (P41143 whole entry): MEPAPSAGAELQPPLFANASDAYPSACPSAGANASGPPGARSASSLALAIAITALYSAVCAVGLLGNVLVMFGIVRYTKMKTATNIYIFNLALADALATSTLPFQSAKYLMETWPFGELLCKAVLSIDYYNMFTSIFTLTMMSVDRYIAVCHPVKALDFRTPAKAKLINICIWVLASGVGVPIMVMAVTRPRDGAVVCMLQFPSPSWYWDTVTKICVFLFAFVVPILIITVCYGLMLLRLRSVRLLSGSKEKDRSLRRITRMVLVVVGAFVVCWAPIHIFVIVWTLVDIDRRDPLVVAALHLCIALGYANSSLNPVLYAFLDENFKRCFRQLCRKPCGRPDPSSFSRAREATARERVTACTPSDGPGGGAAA

## CC1(C)[C@H]2CC=C(CN3CCC4(CC3)C(=O)N(C[C@@H](O)CN)CN4c3ccc(F)cc3)[C@@H]1C2 [compound 619]
Delta opioid receptor
  Ki: > 5000 nM
Kappa opioid receptor
  Ki: 170 nM
Mu opioid receptor
  Ki: 140 nM

## COc1ccc(CCN(C)C[C@H](O)CN2CN(c3ccc(F)cc3)C3(CCN(Cc4cccc5ccccc45)CC3)C2=O)cc1OC [compound 256]
Delta opioid receptor
  IC50: > 10000 nM
Kappa opioid receptor
  IC50: 1180 nM
Mu opioid receptor
  IC50: 5450 nM

## O=C1N(C[C@H](O)CNCc2cc(C(F)(F)F)cc(C(F)(F)F)c2)CN(c2ccc(F)cc2)C12CCN(CC1CCCCCCC1)CC2 [Compound #3]
Delta opioid receptor
  IC50: 9160 nM
Kappa opioid receptor
  IC50: 440 nM
Mu opioid receptor
  IC50: 4050 nM

## COc1ccc(CCNC[C@@H](O)CN2CN(c3ccc(F)cc3)C3(CCN(C4Cc5cccc6cccc4c56)CC3)C2=O)cc1OC (mixture of isomers) [compound 300]
Delta opioid receptor
  IC50: 4840 nM
Kappa opioid receptor
  IC50: 130 nM
Mu opioid receptor
  IC50: 510 nM

## NC[C@@H](O)CN1CN(c2ccccc2)C2(CCN([C@H]3CC[C@@H]4CCCc5cccc3c54)CC2)C1=O [Compound #640, dihydrochloride]
Delta opioid receptor
  Ki: > 5000 nM
Kappa opioid receptor
  Ki: 210 nM
Mu opioid receptor
  Ki: 120 nM

## COc1ccc(CCNC[C@H](O)CN2CN(c3ccc(F)cc3)C3(CCN(Cc4ccc5ccccc5c4)CC3)C2=O)cc1OC [compound 261]
Delta opioid receptor
  IC50: > 10000 nM
Kappa opioid receptor
  IC50: 270 nM
Mu opioid receptor
  IC50: 1560 nM

## CC(=O)NC(CSC[C@H](O)CN1CN(c2ccc(F)cc2)C2(CCN(CC3CCCCCCC3)CC2)C1=O)C(=O)O (single isomer, unassigned) [compound 447]
Delta opioid receptor
  IC50: 480 nM
Mu opioid receptor
  IC50: 480 nM

## COc1ccc(CCN(C)C[C@@H](O)CN2CN(c3ccc(F)cc3)C3(CCN([C@@H]4Cc5cccc6cccc4c56)CC3)C2=O)cc1OC [Compound #339, (R)-8-Acenaphthen-1-yl-3-(3-{[2-(3,4-dimethoxy-phenyl)-ethyl]-methyl-amino}-(R)-2-hydroxy-propyl)-1-(4-fluoro-phenyl)-1,3,8-triaza-spiro[4.5]decan-4-one]
Delta opioid receptor
  IC50: > 10000 nM
Kappa opioid receptor
  IC50: 180 nM
Mu opioid receptor
  IC50: 210 nM

## O=C1N(C[C@@H](O)CNCC23CC4CC(CC(C4)C2)C3)CN(c2ccc(F)cc2)C12CCN(CC1CCCCCCC1)CC2 [compound 17]
Delta opioid receptor
  IC50: > 10000 nM
Kappa opioid receptor
  IC50: 250 nM
Mu opioid receptor
  IC50: 650 nM

## Cc1cccc2cccc(CN3CCC4(CC3)C(=O)N(C[C@H](O)CNCCCN(C)C)CN4c3ccc(F)cc3)c12 [Compound #666, 3-[3-(3-Dimethylamino-propylamino)-2-(R)-hydroxy-propyl]-1-(4-fluoro-phenyl)-8-(8-methyl-naphthalen-1-ylmethyl)-1,3,8-triaza-spiro[4.5]decan-4-one]
Delta opioid receptor
  Ki: > 5000 nM
Kappa opioid receptor
  Ki: 140 nM
Mu opioid receptor
  Ki: 2590 nM

## Cc1cccc2cccc(CN3CCC4(CC3)C(=O)N(C[C@H](O)CN3CCCC3)CN4c3ccc(F)cc3)c12 [compound 705]
Delta opioid receptor
  Ki: > 5000 nM
Kappa opioid receptor
  Ki: 710 nM
Mu opioid receptor
  Ki: 1500 nM

## CN(C)CCN(Cc1ccccc1)C[C@H](O)CN1CN(c2ccc(F)cc2)C2(CCN(CC3CCCCCCC3)CC2)C1=O [compound 63]
Delta opioid receptor
  IC50: 8780 nM
Kappa opioid receptor
  IC50: 230 nM
Mu opioid receptor
  IC50: 3430 nM

## CNCCCNC[C@H](O)CN1CN(c2ccccc2)C2(CCN([C@H]3CC[C@@H]4CCCc5cccc3c54)CC2)C1=O [compound 658]
Delta opioid receptor
  Ki: > 5000 nM
Kappa opioid receptor
  Ki: 130 nM
Mu opioid receptor
  Ki: 170 nM

## O=C1N(C[C@H](O)CNCCc2c[nH]cn2)CN(c2ccc(F)cc2)C12CCN(CC1CCCCCCC1)CC2 [Compound #4]
Delta opioid receptor
  IC50: > 10000 nM
Kappa opioid receptor
  IC50: 110 nM
Mu opioid receptor
  IC50: 160 nM

## COc1ccc(CCNC[C@H](O)CN2CN(c3ccc(F)cc3)C3(CCN(Cc4cccc5ccccc45)CC3)C2=O)cc1OC [compound 253]
Delta opioid receptor
  IC50: 2160 nM
Kappa opioid receptor
  IC50: 400 nM
Mu opioid receptor
  IC50: 760 nM

## O=C1N(C[C@@H](O)CNCCc2c[nH]cn2)CN(c2ccc(F)cc2)C12CCN(CC1CCCCCCC1)CC2 [Compound #28]
Delta opioid receptor
  IC50: > 10000 nM
Kappa opioid receptor
  IC50: 180 nM
Mu opioid receptor
  IC50: 410 nM

## CC(C)(C)OC(=O)N1CCN(C[C@H](O)CN2CN(c3ccc(F)cc3)C3(CCN(CC4CCCCCCC4)CC3)C2=O)CC1 [Compound #73]
Delta opioid receptor
  IC50: > 10000 nM
Kappa opioid receptor
  IC50: 250 nM
Mu opioid receptor
  IC50: 680 nM

## O=C1N(C[C@@H](O)CNCc2ccc(F)cc2F)CN(c2ccc(F)cc2)C12CCN(CC1CCCCCCC1)CC2 [Compound #7]
Delta opioid receptor
  IC50: 7110 nM
Kappa opioid receptor
  IC50: 130 nM
Mu opioid receptor
  IC50: 1380 nM

## COC(=O)c1ccc(CNC[C@H](O)CN2CN(c3ccc(F)cc3)C3(CCN(C4Cc5cccc6cccc4c56)CC3)C2=O)cc1 (mixture of isomers) [compound 348]
Delta opioid receptor
  IC50: > 10000 nM
Kappa opioid receptor
  IC50: 930 nM
Mu opioid receptor
  IC50: 5420 nM

## CC(=O)NC(CSC[C@H](O)CN1CN(c2ccc(F)cc2)C2(CCN(CC3CCCCCCC3)CC2)C1=O)C(=O)O (some centres unmarked) [compound 100]
Delta opioid receptor; [1]
  IC50: > 10000 nM
Kappa opioid receptor; [2]
  IC50: 280 nM
Mu opioid receptor; [3]
  IC50: 230 nM

## CNCCCNC[C@@H](O)CN1CN(c2ccc(F)cc2)C2(CCN(Cc3cccc4cccc(C)c34)CC2)C1=O [Compound #656, 1-(4-Fluoro-phenyl)-3-[2-(R)-hydroxy-3-(3-methylamino-propylamino)-propyl]-8-(8-methyl-naphthalen-1-ylmethyl)-1,3,8-triaza-spiro[4.5]decan-4-one]
Delta opioid receptor
  Ki: > 5000 nM
Kappa opioid receptor
  Ki: 420 nM
Mu opioid receptor
  Ki: 1520 nM

## Cc1cccc(CNC[C@H](O)CN2CN(c3ccc(F)cc3)C3(CCN(CC4CCCCCCC4)CC3)C2=O)c1 [compound 18]
Delta opioid receptor
  IC50: > 10000 nM
Kappa opioid receptor
  IC50: 280 nM
Mu opioid receptor
  IC50: 450 nM

## Cc1cccc2cccc(CN3CCC4(CC3)C(=O)N(C[C@H](O)CN3CC[C@@H](NC(=O)OC(C)(C)C)C3)CN4c3ccc(F)cc3)c12 [compound 710]
Delta opioid receptor
  Ki: > 5000 nM
Kappa opioid receptor
  Ki: 360 nM
Mu opioid receptor
  Ki: 1090 nM

## O=C1N(C[C@@H](O)CN2CCN(c3cccc(C(F)(F)F)c3)CC2)CN(c2ccc(F)cc2)C12CCN(CC1CCCCCCC1)CC2 [Compound #66]
Delta opioid receptor
  IC50: 5930 nM
Kappa opioid receptor
  IC50: 130 nM
Mu opioid receptor
  IC50: 550 nM

## COc1ccc(CCNC[C@H](O)CN2CN(c3ccc(F)cc3)C3(CCN(C4Cc5cccc6cccc4c56)CC3)C2=O)cc1OC (mixture of isomers) [compound 48]
Delta opioid receptor
  IC50: > 10000 nM
Kappa opioid receptor
  IC50: 170 nM
Mu opioid receptor
  IC50: 540 nM

## COc1ccc(CNC[C@@H](O)CN2CN(c3ccc(F)cc3)C3(CCN(CC4CCCCCCC4)CC3)C2=O)cc1OC [Compound #2]
Delta opioid receptor
  IC50: > 10000 nM
Kappa opioid receptor
  IC50: 190 nM
Mu opioid receptor
  IC50: 1200 nM

## Cc1cccc2cccc(CN3CCC4(CC3)C(=O)N(CC(O)CN3CCC(N(C)C(=O)OC(C)(C)C)C3)CN4c3ccc(F)cc3)c12 (centres unmarked) [compound 721]
Delta opioid receptor
  Ki: > 5000 nM
Kappa opioid receptor
  Ki: 170 nM
Mu opioid receptor
  Ki: 590 nM

## CC1(C)[C@H]2CC=C(CN3CCC4(CC3)C(=O)N(C[C@@H]3CO3)CN4c3ccc(F)cc3)[C@@H]1C2 [compound 727]
Delta opioid receptor
  Ki: > 5000 nM
Kappa opioid receptor
  Ki: 210 nM
Mu opioid receptor
  Ki: 120 nM

## O=C1N(C[C@@H](O)CNCc2ccccn2)CN(c2ccc(F)cc2)C12CCN(CC1CCCCCCC1)CC2 [compound 39]
Delta opioid receptor
  IC50: > 10000 nM
Kappa opioid receptor
  IC50: 3250 nM
Mu opioid receptor
  IC50: 8830 nM

## Cc1cccc2cccc(CN3CCC4(CC3)C(=O)N(C[C@H](O)CNCCN(C)C(=O)OC(C)(C)C)CN4c3ccc(F)cc3)c12 [compound 667]
Delta opioid receptor
  Ki: 4140 nM
Kappa opioid receptor
  Ki: 450 nM
Mu opioid receptor
  Ki: 770 nM

## O=C1N(C[C@@H](O)CNCc2cccc(Br)c2)CN(c2ccc(F)cc2)C12CCN(CC1CCCCCCC1)CC2 [compound 20]
Delta opioid receptor
  IC50: > 10000 nM
Kappa opioid receptor
  IC50: 440 nM
Mu opioid receptor
  IC50: 1280 nM

## CN(C)C[C@@H](O)CN1CN(c2ccc(F)cc2)C2(CCN([C@@H]3Cc4cccc5cccc3c45)CC2)C1=O [Compound #423, (R)-Acenaphthen-1-yl-3-(3-dimethylamino-2-hydroxy-(R)-propyl)-1-(4-fluoro-phenyl)-1,3,8-triaza-spiro[4.5]decan-4-one]
Delta opioid receptor; [1]
  IC50: > 1000 nM
Kappa opioid receptor; [2]
  IC50: 590 nM
Mu opioid receptor; [3]
  IC50: 310 nM

## COc1cccc(CNC[C@H](O)CN2CN(c3ccc(F)cc3)C3(CCN(CC4CCCCCCC4)CC3)C2=O)c1 [compound 35]
Delta opioid receptor
  IC50: > 10000 nM
Kappa opioid receptor
  IC50: 660 nM
Mu opioid receptor
  IC50: 820 nM

## Cc1cccc2cccc(CN3CCC4(CC3)C(=O)N(C[C@H](O)CNCCCNC(=O)OC(C)(C)C)CN4c3ccc(F)cc3)c12 [compound 665]
Delta opioid receptor
  Ki: > 5000 nM
Kappa opioid receptor
  Ki: 290 nM
Mu opioid receptor
  Ki: 2710 nM

## O=C1N(C[C@H]2CO2)CN(c2ccc(F)cc2)C12CCN(Cc1ccc3ccccc3c1)CC2 [compound 542]
Delta opioid receptor
  IC50: > 10000 nM
Kappa opioid receptor
  IC50: 530 nM
Mu opioid receptor
  IC50: 160 nM

## CC1CN(C[C@H](O)CN2CN(c3ccc(F)cc3)C3(CCN(CC4CCCCCCC4)CC3)C2=O)CC(C)O1 (some centres unmarked) [compound 75]
Delta opioid receptor
  IC50: > 10000 nM
Kappa opioid receptor
  IC50: 300 nM
Mu opioid receptor
  IC50: 980 nM

## O=C1N(C[C@H](O)CN2C(CO)C(O)C(O)C2CO)CN(c2ccc(F)cc2)C12CCN(C1CCCCCCC1)CC2 (some centres unmarked) [compound 688]
Delta opioid receptor
  Ki: > 5000 nM
Kappa opioid receptor
  Ki: 160 nM
Mu opioid receptor
  Ki: 110 nM

## O=C1N(C[C@@H](O)CNc2ccncc2)CN(c2ccc(F)cc2)C12CCN(CC1CCCCCCC1)CC2 [Compound #36, 8-Cyclooctylmethyl-1-(4-fluoro-phenyl)-3-[2-(S)-hydroxy-3-(pyridin-4-ylamino)-propyl]-1,3,8-triaza-spiro[4.5]decan-4-one]
Delta opioid receptor
  IC50: 1760 nM
Kappa opioid receptor
  IC50: 230 nM
Mu opioid receptor
  IC50: 1760 nM

## COc1ccc(CNC[C@H](O)CN2CN(c3ccc(F)cc3)C3(CCN(Cc4cccc5cccc(C)c45)CC3)C2=O)cc1 [compound 398]
Delta opioid receptor
  IC50: > 10000 nM
Kappa opioid receptor
  IC50: 250 nM
Mu opioid receptor
  IC50: > 10000 nM

## CCN(Cc1ccc(C)cc1)C[C@H](O)CN1CN(c2ccc(F)cc2)C2(CCN(Cc3cccc4ccccc34)CC2)C1=O [compound 252]
Delta opioid receptor
  IC50: > 10000 nM
Kappa opioid receptor
  IC50: 1340 nM
Mu opioid receptor
  IC50: 3700 nM

## O=C1N(C[C@@H](O)CNCc2ccc(C(F)(F)F)cc2)CN(c2ccc(F)cc2)C12CCN(CC1CCCCCCC1)CC2 [Compound #29]
Kappa opioid receptor
  IC50: 410 nM
Mu opioid receptor
  IC50: 5410 nM

## O=C1N(C[C@@H](O)CNc2ccc(Br)cn2)CN(c2ccc(F)cc2)C12CCN(CC1CCCCCCC1)CC2 [compound 13]
Kappa opioid receptor
  IC50: 120 nM
Mu opioid receptor
  IC50: 620 nM

## COc1ccc(CCN(C)C[C@H](O)CN2CN(c3ccc(F)cc3)C3(CCN(Cc4c(Cl)cccc4C(F)(F)F)CC3)C2=O)cc1OC [compound 457]
Kappa opioid receptor
  IC50: 9430 nM
Mu opioid receptor
  IC50: > 10000 nM
